Laboratory results from US5658883A, “Biologically active TGF-β1 peptides” (Celtrix Pharmaceuticals, Inc., priority 1995, dated 1997).
Like-named read-outs stand apart in the source and are kept apart here. Bridge positions count the residues as written; N and C are the ends. Ends that are not written are not given here. Peptide text beside a SMILES is read from it. I, II: the chains in the order shown.

Legend:
TGF-β receptor [1] = conditions: for competing against the binding of 125I-TGF-β1: at concentrations of up to 30 μM
Procedure: (§1) Rat muscle myoblasts (L6, American Type Culture Collection) were plated in 6-well culture plates and cultured in DMEM supplemented with 100 units/ml penicillin, 100 μg/ml streptomycin, 2 mM L-glutamine, 10% FBS until the cells were 70-90% confluent. Medium was aspirated from the wells; and 1 ml of ice cold 20 mM glycine, 135 mM NaCl, pH 3.0 was added to each well for 2 min. The buffer was aspirated and each well was rinsed 2 times with 1 ml of DMEM, 25 mM Hepes, pH 7.4, 0.1% BSA. […] Radiolabeled TGF-β samples (500 μl ) either without unlabeled TGF-β or with excess unlabeled TGF-β (20-25 nM) were prepared and added to other wells. After 1 hr incubation at room temperature, each well was rinsed 2 times with 1 ml of Hank's balanced saline solution, 0.1% BSA. To each well, 500 μl of 1% Triton X-100, 10% glycerol, 20 mM Hepes, pH 7.4, 0.01% BSA was added and incubated at 37° C. with rotation for 30 min to lyse the cells. Samples were transferred into gamma-counting vials and counted for 1 min each.

TGF-β receptor [2] = target: TGF-β receptor
Procedure: as §1

[3] = test system: Mink lung epithelial cells (Mv1Lu CCL64); test: Mink lung epithelial cell proliferation inhibition assay; assay type: cell-based; conditions: for ED50 (half-maximal inhibition of cell proliferation): 4 days, acid phosphatase readout
Procedure: TGF-β is known to inhibit proliferation of mink lung epithelial cells. The mink lung epithelial cell assay was thus used to test the ability of the peptides to mimic the biological activity of TGF-β. Mink lung epithelial cells (ATCC, Rockville, Md., Mv1Lu CCL64) were plated at 0.5-1.0×10^6 cells/plate in 100 mm culture plates and grown in Eagle's minimal essential medium (MEM) supplemented with 50 units/ml penicillin, 50 μg/ml streptomycin, nonessential amino acids, L-glutamine, and 10% fetal bovine serum (FBS). Cells were passaged while the cell density was subconfluent. Cells were detached with trypsin, collected by centrifugation at 800×g for 2 min, and resuspended in the culture medium at 20,000 cells/ml. The cells were plated in 96-well microtiter plates at 1000 cells (50 μl)/well. Peptides TGF-β116-31, TGF-β116-47, TGF-β216-31, TGF-β216-47 in monomeric and dimeric forms were lyophilized in the presence of sterile bovine serum albumin (BSA) carrier. Samples (50 μl) of the peptides were dissolved in the cell culture medium and added to the wells in triplicate. Recombinant human TGF-β2 was used as the standard. The plates were incubated under a 5% CO2 /95% (V/V) air atmosphere at 37° C. for 4 days. The number of cells/well in this assay is proportional to the activity of the constitutively expressed enzyme, acid phosphatase. To measure acid phosphatase activity, the wells were rinsed with phosphate-buffered saline (PBS), filled with 100 μl of 0.1M sodium acetate, pH 5.5/0.1% Triton X-100/100 mM p-nitrophenyl phosphate, and the plates were incubated at 37° C. for 2 hr. Ten μl of 1.0N NaOH was added to each well, and after 20 min at room temperature, the absorbance at 405 nm was measured.

murine thymocytes = test: Inhibition of murine thymocyte proliferation (3H-thymidine incorporation); assay type: cell-based, C3H/HeJ mice
Procedure: In order to determine the effect of the peptides on proliferation of cell types other than mink lung epithelial cells, murine thymocytes were exposed to the peptides. Proliferation was measured by determining the amount of ^3 H-thymidine incorporated into the thymocyte DNA in response to the peptides. The cell culture assay was performed as described by Ellingsworth et al., Cell. Immunol., 114:41-54 (1988). Single-cell suspensions of thymocytes were prepared from 4 to 8 week old C3H/HeJ mice and the cells were suspended in Eagle's MEM supplemented with 5% fetal calf serum (FCS), 100 units/ml penicillin, 100 μg/ml streptomycin, 2 mM L-glutamine and 50 μM β-mercaptoethanol to 6.66×10^6 cells/ml. The thymocytes were plated into 96-well microtiter plates at 10^6 cells/well (150 μl). The cells were activated with 1.0 μg/ml of phytohemagglutinin and 8 units/ml of interleukin-1 (IL-1) (Boehringer Mannheim, Indianapolis, Ind.). […] The cells were incubated at 37° C. for 72 hr in a humidified incubator in 5% CO2 -95% air atmosphere. The cells were pulsed with 0.5 μCi/well of ^3 H-thymidine 24 hours prior to cell harvest. The thymocytes were harvested onto glass fiber filters and dried. The amount of ^3 H-thymidine incorporation was determined by liquid scintillation counting method.

tumor cell proliferation = conditions: in vitro assays, generally observed; cited from earlier work
[4] = 25 pM 125I-TGF-β2, L6 cells, 1 hr room temperature
[5] = PHA and IL-1 activated thymocytes, 72 hr

Molecule: CC[C@H](C)[C@H](NC(=O)[C@H](Cc1ccc(O)cc1)NC(=O)[C@H](CC(C)C)NC(=O)[C@H](CCC(N)=O)NC(=O)[C@H](CCCNC(=N)N)NC(=O)[C@@H](NC(=O)[C@@H](N)CSSC[C@H](N)C(=O)N[C@H](C(=O)N[C@@H](CCCNC(=N)N)C(=O)N[C@@H](CCC(N)=O)C(=O)N[C@@H](CC(C)C)C(=O)N[C@@H](Cc1ccc(O)cc1)C(=O)N[C@H](C(=O)N[C@@H](CC(=O)O)C(=O)N[C@@H](Cc1ccccc1)C(=O)N[C@@H](CCCNC(=N)N)C(=O)N[C@@H](CCCCN)C(=O)N[C@@H](CC(=O)O)C(=O)N[C@@H](CC(C)C)C(=O)NCC(=O)N[C@@H](Cc1c[nH]c2ccccc12)C(=O)N[C@@H](CCCCN)C(=O)O)[C@@H](C)CC)C(C)C)C(C)C)C(=O)N[C@@H](CC(=O)O)C(=O)N[C@@H](Cc1ccccc1)C(=O)N[C@@H](CCCNC(=N)N)C(=O)N[C@@H](CCCCN)C(=O)N[C@@H](CC(=O)O)C(=O)N[C@@H](CC(C)C)C(=O)NCC(=O)N[C@@H](Cc1c[nH]c2ccccc12)C(=O)N[C@@H](CCCCN)C(=O)O [TGF-β116-31 dimer] (I: H-CVRQLYIDFRKDLGWK-OH / II: H-CVRQLYIDFRKDLGWK-OH; disulfide I:1-II:1)
- ED50 (competition against binding of 125I-TGF-β1) (TGF-β receptor [1]): 10 to 15 µM
- ED50 (competition against binding of 125I-TGF-β2) (TGF-β receptor [2]): 10 to 15 µM

Molecule: CC[C@H](C)[C@H](NC(=O)[C@H](Cc1ccc(O)cc1)NC(=O)[C@H](CC(C)C)NC(=O)[C@@H]1CCCN1C(=O)[C@H](CCCNC(=N)N)NC(=O)[C@H](CC(C)C)NC(=O)[C@@H](N)CSSC[C@H](N)C(=O)N[C@@H](CC(C)C)C(=O)N[C@@H](CCCNC(=N)N)C(=O)N1CCC[C@H]1C(=O)N[C@@H](CC(C)C)C(=O)N[C@@H](Cc1ccc(O)cc1)C(=O)N[C@H](C(=O)N[C@@H](CC(=O)O)C(=O)N[C@@H](Cc1ccccc1)C(=O)N[C@@H](CCCCN)C(=O)N[C@@H](CCCNC(=N)N)C(=O)N[C@@H](CC(=O)O)C(=O)N[C@@H](CC(C)C)C(=O)NCC(=O)N[C@@H](Cc1c[nH]c2ccccc12)C(=O)N[C@@H](CCCCN)C(=O)O)[C@@H](C)CC)C(=O)N[C@@H](CC(=O)O)C(=O)N[C@@H](Cc1ccccc1)C(=O)N[C@@H](CCCCN)C(=O)N[C@@H](CCCNC(=N)N)C(=O)N[C@@H](CC(=O)O)C(=O)N[C@@H](CC(C)C)C(=O)NCC(=O)N[C@@H](Cc1c[nH]c2ccccc12)C(=O)N[C@@H](CCCCN)C(=O)O [TGF-β216-31 dimer] (I: H-CLRPLYIDFKRDLGWK-OH / II: H-CLRPLYIDFKRDLGWK-OH; disulfide I:1-II:1)
- ED50 (competition against binding of 125I-TGF-β2) (TGF-β receptor [2]): 30 µM

Molecule: CLRPLYIDFKRDLGWK [TGF-β216-31]
- ED50 (competition against binding of 125I-TGF-β2), in words (TGF-β receptor [2]; 25 pM 125I-TGF-β2, L6 cells): inactive
- ED50 / activity in words [3]: inactive
- activity in thymocyte proliferation assay (murine thymocytes): inactive

Molecule: CLRPLYIDFKRDLGWKWIHEPKGYNANFCAGA [TGF-β216-47 monomer]
- ED50 (competition against binding of 125I-TGF-β2) (TGF-β receptor [2]; [4]): 30 µM
- competing against the binding of 125I-TGF-β2 (TGF-β receptor [2]; at concentrations of up to 30 μM): either inactive or weakly active
- ED50 / activity in words [3]: not active

Molecule: CVRQLYIDFRKDLGWKWIHEPKGYHANFCLGP [TGF-β116-47 monomer]
- ED50 (competition against binding of 125I-TGF-β1), in words (TGF-β receptor [1]; 25 pM 125I-TGF-β1, L6 cells): not active
- competing against the binding of 125I-TGF-β1 (TGF-β receptor [1]): either inactive or weakly active
- ED50 / activity in words [3]: some activity
- ED50 (half-maximal inhibition of cell proliferation) [3]: 1 µM

Molecule: CVRQLYIDFRKDLGWKWIHEPKGYHANFCLGP [TGF-β116-47 trimer] (cysteine pairing not given here; also: trimer)
- ED50 (half-maximal inhibition of cell proliferation) [3]: 0.0327 µM

Molecule: TGF-β
- concentration at which saturation is achieved (tumor cell proliferation): 10 ng/mL
- concentration for 50% inhibition of tumor cell proliferation (tumor cell proliferation): ~0.2 ng/mL

Molecule: TGF-β1: full length transforming growth factor β1
- ED50 (competition against binding of 125I-TGF-β1) (TGF-β receptor [1]; 25 pM 125I-TGF-β1, L6 cells, 1 hr room temperature): 1e-05 to 3e-05 µM
- Kd (TGF-β receptor [1]; read-out: apparent dissociation constant, estimated from competitive binding data, 125I-TGF-β1): 10 to 30 pM

Molecule: TGF-β2: full length transforming growth factor β2, used as the standard
- ED50 (inhibition of 3H-thymidine incorporation) (murine thymocytes; [5]): approximately 4 pM

B1: CLRPLYIDFKRDLGWKWIHEPKGYNANFCAGA [TGF-β216-47 dimer] (peptide)
chain 1: CLRPLYIDFKRDLGWKWIHEPKGYNANFCAGA
chain 2: CLRPLYIDFKRDLGWKWIHEPKGYNANFCAGA
modifications: disulfide (positions not given here); also: disulfide-bonded homodimer, Cys pairing not given here
- ED50 (competition against binding of 125I-TGF-β2) (TGF-β receptor [2]; [4]): 3 µM
- Kd (TGF-β receptor [2]; read-out: apparent dissociation constant, estimated from competitive binding data, 125I-TGF-β2): ~3 µM
- ED50 (half-maximal inhibition of cell proliferation) [3]: 0.004 to 0.014 µM
- fold more activity than dimerized TGF-β116-47 ([3]; from ED50): 11-38 fold
- ED50 (inhibition of thymocyte proliferation) (murine thymocytes; [5]): 0.057 µM

B2: CVRQLYIDFRKDLGWKWIHEPKGYHANFCLGP [TGF-β116-47 dimer] (peptide)
chain 1: CVRQLYIDFRKDLGWKWIHEPKGYHANFCLGP
chain 2: CVRQLYIDFRKDLGWKWIHEPKGYHANFCLGP
modifications: disulfide (positions not given here); also: disulfide-bonded homodimer, Cys pairing not given here
- ED50 (competition against binding of 125I-TGF-β1), in words (TGF-β receptor [1]; 25 pM 125I-TGF-β1, L6 cells): not active
- competing against the binding of 125I-TGF-β1 (TGF-β receptor [1]): either inactive or weakly active
